Peptide text beside a SMILES is read from it.
System: HCEC cells
Assay: MTT assay, viability of HCEC cells
Type: cell-based, Human
Procedure: Human corneal epithelial cell line, HCEC, was cultured in complete KSF containing keratinocyte-serum free medium, 5 ng/ml human recombinant EGF, 0.05 mg/ml bovine pituitary extract, 0.005 mg/ml insulin and 500 ng/ml hydrocortisone under 5% CO2 at 37° C.
Cells (2×10^4) in 1 ml complete KSF were seeded in 12-well plates with or without Peptide NO. 12. Seventy microliters of 5 mg/ml 3-(4,5-dimethyl-2-thiazolyl)-2,5-diphenyl-2H-tetrazolium bromide solution (MTT; Sigma) was added to each well for the indicated times and incubated at 37° C. for 3 hours, after which 700 μl 10% SDS in 0.01 N HCl was added to dissolve the MTT formazan crystals. The resultant optical density was measured spectrophotometrically at dual wavelengths, 550 and 630 nm.

CC(C)C[C@H](NC(=O)[C@@H]1CCCN1C(=O)[C@H](CC(N)=O)NC(=O)[C@@H](N)CCCNC(=N)N)C(=O)N[C@@H](CCC(=O)O)C(=O)N[C@@H](CCC(=O)O)C(=O)N[C@H](C(=O)O)[C@@H](C)O [Peptide NO. 12, ArgAsnProLeuGluGluThr] (H-RNPLEET-OH; N-terminus and C-terminus assumed)
viability of HCEC cells (24 hours, 5, 10, 25 and 50 μg/ml, FIG. 3): did not significantly affect viability of HCEC cells
viability of HCEC cells (48 hours, 5, 10, 25 and 50 μg/ml, FIG. 4): did not significantly affect viability of HCEC cells

Reference: patent US10364270B2, “Eye-care peptide, its composition and method of using the same” (PRO SUNFUN BIOTECH RESEARCH AND DEVELOPMENT CO., LTD., priority 2017, dated 2019)
